The subject of one test is BACE1. Briefly: Screening for ALT-59 derivatives with BACE1 protein levels as indicator, U-87 MG cells. Conditions: 2 days, concentrations as indicated in FIGS. 15-17. It counts as cell-based. On the procedure: Additional experiments were performed to screen for compounds with higher potency and the ability to penetrate blood brain barrier using BACE1 protein levels as an indicator. U-87 MG cells were cultured as described previously and treated for 2 days with compounds at concentrations as indicated in FIGS. 15-17. Cells were then subjected to Western blotting analysis using anti-BACE1 and anti-beta-actin antibodies.

The next test concerns Phe508del-CFTR. The test is described as follows: Phe508del-CFTR localization, immunofluorescence microscopy, primary bronchial epithelial cells of a cystic fibrosis patient. It counts as cell-based, human. Conditions: primary bronchial epithelial cells homozygous for Phe508del-CFTR, 3 days. How it is done: MDA-MB-231 and U-87 MG cells were cultured on cover slips under the conditions as described above. Cells were treated with DMSO or 4 μM ALT-59 for 3 days. Primary human bronchial epithelial cells isolated from cystic fibrosis patient homozygous for Phe508del-CFTR (Lifeline Cell Technology) were cultured on cover slips in BronchiaLife Cell Culture Medium supplemented with BrochiaLife LifeFactors Kit (Lifeline Cell Technology) and maintained at 37° C. in a CO2 incubator. Cells were treated with DMSO, 4 μM ALT-59, 2 μM ALT-308, or 4 μM ALT-410 for 3 days.
Cells were fixed in 4% paraformaldehyde for 15 minutes and permeabilized in 0.1% Triton X-100 for 2 minutes. After being blocked in 5% BSA (Sigma-Aldrich), cells were incubated with anti-CFTR antibody (Alomone Labs) followed by Alexa Fluor 488 anti-rabbit secondary antibody. Reagents were buffered in GIBCO PBS (Phosphate-Buffered Saline). Images were taken using Carl Zeiss LSM 510 Laser Scanning Microscope. Parameters were set identical for all images.

Take `CC1(C)CC(=O)C2=C(C1)c1c(ccc3ccccc13)NC2c1ccc(C(C)(C)C)cc1` (stereo not shown) [ALT-308, 5-(4-(tert-butyl)phenyl)-2,2-dimethyl-2,3,5,6-tetrahydrobenzo[a]phenanthridin-4(1H)-one]: the BACE1 protein expression result in the test on BACE1 is “capable of lowering BACE1 expression”. Further, the “localization of Phe508del-CFTR on the plasma membrane” value in the test with Phe508del-CFTR (2 μM) is on record as “increased localization of Phe508del-CFTR on the plasma membrane”.
On to `CCCOc1ccc(C2Nc3ccc4ccccc4c3C3=C2C(=O)CCC3)cc1` (stereo not shown) [ALT-410, 5-(4-propoxyphenyl)-2,3,5,6-tetrahydrobenzo[a]phenanthridin-4(1H)-one], for which, in the test on BACE1, the BACE1 protein expression result was “capable of lowering BACE1 expression”. Also, the “localization of Phe508del-CFTR on the plasma membrane” value with Phe508del-CFTR (4 μM) is given as “increased localization of Phe508del-CFTR on the plasma membrane”.

The values above are taken from patent US20230095021A1, “MODULATORS OF TDP-43” (Alteron Therapeutics, Inc., priority 2019, published 2023).
